ChEMBL document CHEMBL1154624, “Novel class of LIM-kinase 2 inhibitors for the treatment of ocular hypertension and associated glaucoma” (J Med Chem, 2009)

Key:
PTM = settings: Sus scrofa, at 10 nM
Description: Inhibition of LIMK2 in pig PTM cells assessed as inhibition of cofilin-phosphorylation at 10 nM by Western blot

LIM domain kinase 2 = LIM domain kinase 2 (Homo sapiens, UniProt P53671); test: Inhibition of human recombinant LIMK2 expressed in baculovirus-Sf9 system by scintillation counting; type: cell-based
[1] = target: Rho-associated protein kinase 1 (Homo sapiens, UniProt Q13464); test: Inhibition of human ROCK1 expressed in baculovirus system
Sequence of Rho-associated protein kinase 1 (Q13464 whole entry): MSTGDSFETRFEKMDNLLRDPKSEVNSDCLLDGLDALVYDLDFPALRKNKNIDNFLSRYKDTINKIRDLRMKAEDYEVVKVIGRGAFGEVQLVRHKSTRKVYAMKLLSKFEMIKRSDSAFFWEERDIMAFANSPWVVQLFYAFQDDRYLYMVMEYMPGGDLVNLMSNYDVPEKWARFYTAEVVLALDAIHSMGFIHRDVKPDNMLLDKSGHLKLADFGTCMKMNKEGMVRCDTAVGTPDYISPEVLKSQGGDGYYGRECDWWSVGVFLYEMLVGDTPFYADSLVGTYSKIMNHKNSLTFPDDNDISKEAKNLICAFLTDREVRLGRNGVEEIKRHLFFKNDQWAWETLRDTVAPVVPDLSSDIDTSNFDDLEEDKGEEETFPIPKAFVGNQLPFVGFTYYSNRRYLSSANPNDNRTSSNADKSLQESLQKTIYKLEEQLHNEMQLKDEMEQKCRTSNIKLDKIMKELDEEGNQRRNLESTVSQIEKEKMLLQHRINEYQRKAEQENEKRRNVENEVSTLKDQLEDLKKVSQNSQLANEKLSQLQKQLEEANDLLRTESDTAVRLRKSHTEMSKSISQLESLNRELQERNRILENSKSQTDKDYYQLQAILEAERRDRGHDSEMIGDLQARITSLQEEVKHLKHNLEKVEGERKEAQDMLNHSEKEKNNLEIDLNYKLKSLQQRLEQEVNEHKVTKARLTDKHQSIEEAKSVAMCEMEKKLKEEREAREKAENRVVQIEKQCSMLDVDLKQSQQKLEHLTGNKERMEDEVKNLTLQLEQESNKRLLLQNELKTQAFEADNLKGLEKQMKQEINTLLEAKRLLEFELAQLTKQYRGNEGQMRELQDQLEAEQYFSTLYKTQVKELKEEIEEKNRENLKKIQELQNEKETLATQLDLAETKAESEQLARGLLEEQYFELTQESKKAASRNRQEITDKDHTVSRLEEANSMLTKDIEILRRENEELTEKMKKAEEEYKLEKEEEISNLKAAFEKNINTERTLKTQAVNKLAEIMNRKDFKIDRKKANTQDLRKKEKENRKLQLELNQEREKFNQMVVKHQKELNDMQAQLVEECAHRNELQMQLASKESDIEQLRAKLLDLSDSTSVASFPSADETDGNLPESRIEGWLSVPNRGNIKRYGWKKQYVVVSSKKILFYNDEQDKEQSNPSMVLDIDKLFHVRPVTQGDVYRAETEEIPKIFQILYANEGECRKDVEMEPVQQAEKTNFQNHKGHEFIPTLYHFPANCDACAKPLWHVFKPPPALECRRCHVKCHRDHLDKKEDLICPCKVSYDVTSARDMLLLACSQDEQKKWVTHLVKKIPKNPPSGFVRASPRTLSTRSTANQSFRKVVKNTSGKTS

Mus musculus [2] = test: Inhibition of dexamethasone-induced ocular hypertension in C57BL/6J Tyr c-Brd x 129S5/SvEvBrD hybrid mouse assessed as reduction of intraocular pressure at 3 ug after 2 hrs administered as cosolvent/HPMC based formulation; type: functional, Eye
Homo sapiens [3] = species on record: Homo sapiens; test: Selectivity ratio of IC50 for human LIMK2 to IC50 for human ROCK2
Mus musculus [4] = test: Inhibition of dexamethasone-induced ocular hypertension in C57BL/6J Tyr c-Brd x 129S5/SvEvBrD hybrid mouse assessed as reduction of intraocular pressure after 2 hrs administered as cosolvent/HPMC based formulation; type: functional, organism-based; settings: Eye
Homo sapiens [5] = species on record: Homo sapiens; test: Selectivity ratio of IC50 for human LIMK2 to IC50 for human ROCK1
Mus musculus [6] = test: Inhibition of dexamethasone-induced ocular hypertension in C57BL/6J Tyr c-Brd x 129S5/SvEvBrD hybrid mouse assessed as reduction of intraocular pressure at 5 ug after 1 hr administered as xanthan gum formulation; type: functional, Eye
[7] = target: Rho-associated protein kinase 2 (Homo sapiens, UniProt O75116); test: Inhibition of human ROCK2
Sequence of Rho-associated protein kinase 2 (O75116 whole entry, the tested form may be a part): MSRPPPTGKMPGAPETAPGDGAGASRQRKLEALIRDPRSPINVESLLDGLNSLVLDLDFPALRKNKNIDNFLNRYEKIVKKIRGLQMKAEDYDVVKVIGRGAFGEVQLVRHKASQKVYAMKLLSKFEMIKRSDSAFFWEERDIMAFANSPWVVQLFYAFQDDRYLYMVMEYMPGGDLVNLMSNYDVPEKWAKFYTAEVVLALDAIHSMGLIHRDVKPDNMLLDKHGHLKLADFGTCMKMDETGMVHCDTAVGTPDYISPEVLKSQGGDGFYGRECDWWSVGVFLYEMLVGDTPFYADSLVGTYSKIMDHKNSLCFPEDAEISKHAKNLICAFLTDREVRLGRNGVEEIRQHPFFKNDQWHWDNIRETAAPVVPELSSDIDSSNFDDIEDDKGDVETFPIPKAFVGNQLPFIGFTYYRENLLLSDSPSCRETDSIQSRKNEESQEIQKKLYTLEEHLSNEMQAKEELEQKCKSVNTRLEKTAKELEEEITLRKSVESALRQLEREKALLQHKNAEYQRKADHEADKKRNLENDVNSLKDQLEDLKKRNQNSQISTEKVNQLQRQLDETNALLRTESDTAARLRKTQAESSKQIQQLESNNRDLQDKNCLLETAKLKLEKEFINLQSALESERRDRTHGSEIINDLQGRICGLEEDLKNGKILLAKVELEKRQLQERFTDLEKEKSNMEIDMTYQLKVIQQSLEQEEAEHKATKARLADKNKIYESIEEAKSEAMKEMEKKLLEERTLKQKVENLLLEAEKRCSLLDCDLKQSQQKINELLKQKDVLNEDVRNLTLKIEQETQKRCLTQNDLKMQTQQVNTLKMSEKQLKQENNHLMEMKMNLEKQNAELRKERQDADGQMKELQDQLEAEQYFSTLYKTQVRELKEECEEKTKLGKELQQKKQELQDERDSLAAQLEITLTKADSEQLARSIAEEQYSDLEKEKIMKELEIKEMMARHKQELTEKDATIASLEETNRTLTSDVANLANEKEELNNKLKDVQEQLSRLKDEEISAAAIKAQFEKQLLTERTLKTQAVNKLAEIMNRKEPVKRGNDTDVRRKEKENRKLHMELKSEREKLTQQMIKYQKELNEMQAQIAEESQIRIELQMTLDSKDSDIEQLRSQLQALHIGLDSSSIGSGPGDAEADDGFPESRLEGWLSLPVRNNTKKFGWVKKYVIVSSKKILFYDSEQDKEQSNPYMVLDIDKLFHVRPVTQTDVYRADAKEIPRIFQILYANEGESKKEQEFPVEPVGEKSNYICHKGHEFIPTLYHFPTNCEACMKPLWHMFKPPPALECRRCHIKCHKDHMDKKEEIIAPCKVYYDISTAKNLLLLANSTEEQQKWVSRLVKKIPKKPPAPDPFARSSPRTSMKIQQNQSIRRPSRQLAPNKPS

LIM domain kinase 1 = LIM domain kinase 1 (Homo sapiens, UniProt P53667); test: Inhibition of LIMK1
Sequence of LIM domain kinase 1 (P53667 whole entry, the tested form may be a part): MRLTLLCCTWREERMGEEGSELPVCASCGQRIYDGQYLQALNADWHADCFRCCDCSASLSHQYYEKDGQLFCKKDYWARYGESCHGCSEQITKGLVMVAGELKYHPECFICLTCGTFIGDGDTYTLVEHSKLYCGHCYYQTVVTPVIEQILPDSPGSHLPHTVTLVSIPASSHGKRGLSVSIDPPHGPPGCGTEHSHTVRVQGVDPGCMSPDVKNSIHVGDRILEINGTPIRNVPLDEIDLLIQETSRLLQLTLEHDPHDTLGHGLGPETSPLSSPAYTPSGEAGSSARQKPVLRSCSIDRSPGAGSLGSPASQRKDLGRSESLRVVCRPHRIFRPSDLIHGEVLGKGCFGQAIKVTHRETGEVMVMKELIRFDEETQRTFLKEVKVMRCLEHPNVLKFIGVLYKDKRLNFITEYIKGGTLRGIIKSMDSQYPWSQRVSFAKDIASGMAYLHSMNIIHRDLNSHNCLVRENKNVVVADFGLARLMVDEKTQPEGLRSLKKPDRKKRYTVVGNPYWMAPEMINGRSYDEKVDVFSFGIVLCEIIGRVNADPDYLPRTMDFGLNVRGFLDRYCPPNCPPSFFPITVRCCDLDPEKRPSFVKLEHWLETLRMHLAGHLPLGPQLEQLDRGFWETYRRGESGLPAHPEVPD

[8] = Increase in outflow facility in pig eye at 100 nM by eye-perfusion assay; type: functional, Sus scrofa
[9] = Increase in outflow facility in pig eye at 10 nM by eye-perfusion assay; type: functional, Sus scrofa

Sequence of LIM domain kinase 2 (P53671 whole entry, the tested form may be a part): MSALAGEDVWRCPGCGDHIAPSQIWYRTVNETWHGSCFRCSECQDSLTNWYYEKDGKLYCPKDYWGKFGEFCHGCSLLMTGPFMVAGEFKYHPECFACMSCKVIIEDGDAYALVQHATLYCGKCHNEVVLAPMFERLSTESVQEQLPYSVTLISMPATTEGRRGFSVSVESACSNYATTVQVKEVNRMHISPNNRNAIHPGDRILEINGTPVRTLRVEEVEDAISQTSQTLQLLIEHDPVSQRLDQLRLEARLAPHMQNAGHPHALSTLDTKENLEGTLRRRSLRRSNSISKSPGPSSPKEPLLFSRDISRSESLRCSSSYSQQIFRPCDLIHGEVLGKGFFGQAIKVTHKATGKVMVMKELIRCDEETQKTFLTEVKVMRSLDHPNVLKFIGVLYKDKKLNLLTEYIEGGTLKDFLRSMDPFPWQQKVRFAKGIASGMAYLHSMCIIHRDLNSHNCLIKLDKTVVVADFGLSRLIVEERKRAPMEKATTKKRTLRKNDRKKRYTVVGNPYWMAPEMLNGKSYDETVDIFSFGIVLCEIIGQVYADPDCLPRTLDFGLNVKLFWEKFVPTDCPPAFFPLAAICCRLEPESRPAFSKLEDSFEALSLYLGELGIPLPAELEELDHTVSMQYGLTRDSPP

| Compound | inhibition (PTM) [%] | IC50 (LIM domain kinase 2) [nM] | other results |
| --- | --- | --- | --- |
| Cc1c[nH]c2ncnc(N3CCN(/C(=N/C#N)Nc4cccc(C#N)c4)[C@@H](C)C3)c12 | 18 | 1.2 | – |
| CC1CN(c2ncnc3[nH]ccc23)CCN1/C(=N/C#N)Nc1cccc(Br)c1 (racemic) | – | 8.1 | – |
| Cc1c[nH]c2ncnc(N3CCN(C(=O)Nc4cccc(C(=O)NC(C)C)c4)[C@@H](C)C3)c12 | 0 | 5.5 | – |
| C[C@H]1CN(c2ncnc3[nH]cc(Cl)c23)CCN1/C(=N/C#N)Nc1cccc(Br)c1 | – | 1.2 | – |
| Cc1c[nH]c2ncnc(N3CCN(C(=O)Nc4cccc(Br)c4)[C@@H](C)C3)c12 | – | 3.9 | – |
| Cc1c[nH]c2ncnc(N3CCC(C(=O)Nc4cccc(Oc5ccccc5)c4)CC3)c12 | – | 64 | – |
| Cc1c[nH]c2ncnc(N3CCN(/C(=N/C#N)Nc4cccc(S(=O)(=O)NC(C)C)c4)[C@@H](C)C3)c12 | 0 | 1.7 | – |
| Cc1c[nH]c2ncnc(N3CCC(C(=O)Nc4ccccc4)CC3)c12 | – | 800 | – |
| Cc1c[nH]c2ncnc(N3C[C@@H](C)N(C(=O)Nc4cccc(Br)c4)[C@@H](C)C3)c12 | – | 133 | – |
| C[C@H]1CN(c2nc(Cl)nc3[nH]ccc23)CCN1C(=Nc1cccc(Br)c1)NC#N | – | > 1000 | – |
| Cc1c[nH]c2ncnc(N3CCN(C(=Nc4cccc(C(=O)NC(C)C)c4)NC#N)[C@@H](C)C3)c12 | – | 3.5 | – |
| Cc1c[nH]c2ncnc(N3CCN(/C(=N/C#N)Nc4cccc(Cl)c4)[C@@H](C)C3)c12 | 49 | 1.6 | – |
| Cc1c[nH]c2ncnc(N3C[C@H](C)N(C(=Nc4cccc(Br)c4)NC#N)C[C@H]3C)c12 | – | 3.9 | – |
| Cc1c[nH]c2ncnc(N3CCN(C(=Nc4cccc(C(C)(C)C)c4)NC#N)[C@@H](C)C3)c12 | – | 1.1 | – |
| Cc1c[nH]c2ncnc(N3CCN(C(=O)Nc4cccc(Br)c4)[C@H](C)C3)c12 | – | 37 | – |
| Cc1c[nH]c2ncnc(N3CCN(C(=O)Nc4cccc(C(=O)NC(CO)CO)c4)[C@@H](C)C3)c12 | 27 | 3 | – |
| Cc1c[nH]c2ncnc(N3CCN(C(=O)Nc4cccc(OC(=O)N(C)C)c4)[C@@H](C)C3)c12 | 61 | 1.2 | IC50 [1]: 490 nM; Activity (Mus musculus [2]): -3.2 mmHg; Ratio IC50 (Homo sapiens [3]): > 900; Activity (Mus musculus [4]): Dose-dependent effect; Ratio IC50 (Homo sapiens [5]): > 100; Activity (Mus musculus [6]): 3.6 mmHg; IC50 [7]: 1100 nM; IC50 (LIM domain kinase 1): 3.2 nM; Activity [8]: 30% |
| Cc1c[nH]c2ncnc(N3CCC(C(=O)Nc4cccc(Br)c4)CC3)c12 | – | 300 | – |
| Cc1ccc(NC(=O)C2CCN(c3ncnc4[nH]cc(C)c34)CC2)cc1 | – | 1300 | – |
| Cc1c[nH]c2ncnc(N3CCN(C(=O)Nc4cccc(C(=O)NCCO)c4)[C@@H](C)C3)c12 | 0 | 3 | – |
| C[C@@H](N)c1ccc(C(=O)Nc2ccnc3[nH]ccc23)cc1 [Y-39983] | – | – | Activity [9]: 28% |
| Cc1c[nH]c2ncnc(N3CCN(/C(=N/C#N)Nc4cccc(C(=O)NCCN(C)C)c4)[C@@H](C)C3)c12 | 0 | 3.4 | – |
| Cc1c[nH]c2ncnc(N3CCN(/C(=N/C#N)Nc4cccc(C(=O)NCCO)c4)[C@@H](C)C3)c12 | 9 | – | – |
| Cc1c[nH]c2ncnc(N3CCN(/C(=N/C#N)Nc4cccc(Br)c4)[C@@H](C(C)C)C3)c12 | – | 4.2 | – |
| Cc1c[nH]c2ncnc(N3CCN(/C(=N/C#N)Nc4cccc(C(F)(F)F)c4)[C@@H](C)C3)c12 | 12 | 1.9 | – |

| Compound | inhibition (PTM) [%] | IC50 (LIM domain kinase 2) [nM] | other results |
| --- | --- | --- | --- |
| Cc1c[nH]c2ncnc(N3CCN(/C(=N/C#N)Nc4cccc(C(C)(C)C)c4)[C@@H](C)C3)c12 | 10 | – | – |
| Cc1c[nH]c2ncnc(N3CCN(C(=Nc4cccc(C(=O)NCCO)c4)NC#N)[C@@H](C)C3)c12 | – | 0.8 | – |
| Cc1cccc(NC(=O)C2CCN(c3ncnc4[nH]cc(C)c34)CC2)c1 | – | 650 | – |
| Cc1c[nH]c2ncnc(N3CC4CC3CN4C(=Nc3cccc(Br)c3)NC#N)c12 (stereo not given) | – | 76 | – |
| CC(C)(C)NC[C@H](O)COc1nsnc1N1CCOCC1 [TIMOLOL] | – | – | Activity (Mus musculus [2]): -5.2 mmHg |
| Cc1ccccc1NC(=O)C1CCN(c2ncnc3[nH]cc(C)c23)CC1 | – | 11500 | – |
| Cc1cccc(NC(=O)N2CCN(c3ncnc4[nH]cc(C)c34)CC2)c1 | – | 92 | – |
| Cc1cc2c(N3CCN(/C(=N/C#N)Nc4cccc(Br)c4)[C@@H](C)C3)ncnc2[nH]1 | – | 4.2 | – |
| Cc1c[nH]c2ncnc(N3CCN(/C(=N/C#N)Nc4cccc(C(=O)NC(C)C)c4)[C@@H](C)C3)c12 | 0 | – | – |
| Cc1c[nH]c2ncnc(N3CCN(/C(=N/S(C)(=O)=O)Nc4cccc(Br)c4)[C@@H](C)C3)c12 | 48 | 6.8 | – |
| Cc1c[nH]c2ncnc(N3CCN(C(=O)Nc4cccc(Br)c4)CC3)c12 | – | 38 | – |
| Cc1c[nH]c2ncnc(N3CCN(/C(=N/C#N)Nc4ccc(F)c(Br)c4)[C@@H](C)C3)c12 | 63 | 1.5 | IC50 [1]: 310 nM; Ratio IC50 (Homo sapiens [3]): > 900; Ratio IC50 (Homo sapiens [5]): > 100; IC50 [7]: 2200 nM; IC50 (LIM domain kinase 1): 3.7 nM |
| Cc1c[nH]c2ncnc(N3CCN(/C(=N/C#N)Nc4cccc(Br)c4)CC3)c12 | – | 11 | – |
| COc1ccc(NC(=O)C2CCN(c3ncnc4[nH]cc(C)c34)CC2)cc1 | – | 1500 | – |
| Cc1c[nH]c2ncnc(N3CCN(/C(=N/C#N)Nc4cccc(S(=O)(=O)NCCO)c4)[C@@H](C)C3)c12 | 22 | – | – |
| Cc1c[nH]c2ncnc(N3CCN(C(=Nc4cccc(S(=O)(=O)NCCO)c4)NC#N)[C@@H](C)C3)c12 | – | 2.9 | – |
| Cc1c[nH]c2ncnc(N3CCN(/C(=N\C#N)Nc4cccc(Br)c4)[C@@H](C)C3)c12 | – | 0.9 | IC50 [1]: 260 nM; IC50 [7]: 2700 nM; IC50 (LIM domain kinase 1): 0.5 nM |
| Cc1c[nH]c2ncnc(N3CCN(/C(=N/C#N)Nc4cccc(Br)c4)[C@@H](C)C3)c12 | 50 | – | Ratio IC50 (Homo sapiens [3]): > 900; Ratio IC50 (Homo sapiens [5]): > 100; Activity (Mus musculus [6]): 3.7 mmHg; Activity [8]: 30% |
| Cc1c[nH]c2ncnc(N3CCN(C(=O)Nc4ccc(F)c(Br)c4)[C@@H](C)C3)c12 | 51 | 3.2 | IC50 [1]: 51 nM; Ratio IC50 (Homo sapiens [3]): 88; Ratio IC50 (Homo sapiens [5]): 16; Activity (Mus musculus [6]): 3.6 mmHg; IC50 [7]: 280 nM; IC50 (LIM domain kinase 1): 6.6 nM |
| Cc1c[nH]c2ncnc(N3CCN(/C(=N/C#N)Nc4cccc(F)c4)[C@@H](C)C3)c12 | 39 | 1.8 | – |
| Cc1c[nH]c2ncnc(N3CC4CCC(C3)N4C(=O)Nc3cccc(Br)c3)c12 | – | 16 | – |
| Cc1c[nH]c2ncnc(N3CCN(C(=O)Nc4cccc(Cl)c4)[C@@H](C)C3)c12 | 0 | 2.3 | – |
| COc1cccc(NC(=O)N2CCN(c3ncnc4[nH]cc(C)c34)CC2)c1 | – | 140 | – |
| COc1cccc(NC(=O)C2CCN(c3ncnc4[nH]cc(C)c34)CC2)c1 | – | 520 | – |
